Results published in patent US20040077616A1, “Spirocyclopropyl amides and acids and their therapeutic applications” (priority 2002, published 2004).

Legend:
CD-1 mice [1] = experiment: Maximal Electroshock Procedure; type: in vivo; conditions: Mus musculus, po, p.o. 30 minutes prior to electrical stimulation, PROBIT analysis, read-out: ED50 (dose at which 50% of the mice were protected from tonic seizures)
Experimental: (§1) Adult, male, CD-1 mice (22-25 grams) were obtained from Charles River Laboratories (Portage, Mich.) and housed at Abbott Laboratories (Abbott Park) under standard lighting conditions of 12 hours on/12 hours off, with lights on at 6 a.m. Food and water were provided ad libitum and mice weighed 25-35 grams at the time of testing.
(§2) Compounds were prepared for oral administration by suspending them in a vehicle of 100 μL Tween® 80 per mL hydroxypropyl methylcellulose (2 mg/mL, Abbott Laboratories). Compound solutions were administered at a volume of 10 mL/kg, p.o.
The method used was similar to that of E. A. Swinyard, General principles: Experimental selection, quantification and evaluation of anti-convulsants, Anti-epileptic Drugs, Third Edition, R. Levey, et al., Editors. 1989, Raven Press Ltd: New York. Mice were pretreated orally with compounds of the present invention 30 minutes prior to electrical stimulation. Electrical stimulation consisted of pulsed electrical current (50 mA, 0.4 second duration, pulse width 0.5 msec, 60 pulses/sec) applied via corneal electrodes to induce seizure. The stimulation was delivered with an ECT Unit (Ugo Basile #7801). […] The percent protection from tonic seizures was calculated by dividing the number of protected mice by the total number in the group. […]

CD-1 mice [2] = experiment: Subcutaneous Pentylenetetrazole (PTZ) Seizure Procedure; type: in vivo; conditions: Mus musculus; PTZ 85 mg/kg s.c., compound p.o. 30 minutes prior to PTZ injection, linear regression; read-out: ED50 (dose at which 50% of the mice were protected from tonic seizures)
Experimental: as §1, §2
The method used was similar to that of E. A. Swinyard, General principles: Experimental selection, quantification and evaluation of anti-convulsants, Anti-epileptic Drugs, Third Edition, R. Levey, et al., Editors. 1989, Raven Press Ltd: New York. During the experiment the mice were housed individually in clear polycarbonate cages for observation. […] Seizures were induced by the subcutaneous injection of pentylenetetrazole (PTZ, 85 mg/kg) just below the nape of the neck. […] A total of 20 mice were used in each group. The ED50for the compounds were calculated using linear regression and represent the dose at which 50% of the mice were protected from tonic seizures.

For `CCCC(CCC)C(=O)O` [Valproate], the ED50 (CD-1 mice [1]) was 1200 µmol/kg and the ED50 (CD-1 mice [2]) was 1800 µmol/kg.
